The results in this text go back to ChEMBL document CHEMBL1201862, “PubChem BioAssay data set” (2004).

Assay [1] has as its target T1, Protein skinhead-1 (Caenorhabditis elegans, UniProt P34707).
T1 sequence (P34707 whole entry): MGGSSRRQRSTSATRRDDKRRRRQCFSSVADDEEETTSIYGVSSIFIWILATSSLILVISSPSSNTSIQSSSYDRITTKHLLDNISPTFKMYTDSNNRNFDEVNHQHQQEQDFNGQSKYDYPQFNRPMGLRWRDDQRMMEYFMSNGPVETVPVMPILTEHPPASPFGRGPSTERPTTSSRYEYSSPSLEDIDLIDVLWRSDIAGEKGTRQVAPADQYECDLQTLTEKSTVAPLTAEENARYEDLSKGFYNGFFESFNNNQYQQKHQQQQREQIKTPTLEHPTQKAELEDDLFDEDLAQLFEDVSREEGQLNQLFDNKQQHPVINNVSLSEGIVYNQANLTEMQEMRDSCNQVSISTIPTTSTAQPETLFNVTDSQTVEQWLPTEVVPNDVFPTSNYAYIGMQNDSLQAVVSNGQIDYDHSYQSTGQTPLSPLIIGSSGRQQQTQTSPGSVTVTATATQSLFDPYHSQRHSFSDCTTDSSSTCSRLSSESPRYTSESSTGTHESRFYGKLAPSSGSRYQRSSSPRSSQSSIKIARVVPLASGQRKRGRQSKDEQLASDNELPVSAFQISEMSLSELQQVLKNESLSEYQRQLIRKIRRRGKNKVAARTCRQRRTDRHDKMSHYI
The format is functional.

Assay [2] concerns the target T2, Heat shock factor protein 1 (Mus musculus, UniProt P38532).
T2 sequence (P38532 whole entry): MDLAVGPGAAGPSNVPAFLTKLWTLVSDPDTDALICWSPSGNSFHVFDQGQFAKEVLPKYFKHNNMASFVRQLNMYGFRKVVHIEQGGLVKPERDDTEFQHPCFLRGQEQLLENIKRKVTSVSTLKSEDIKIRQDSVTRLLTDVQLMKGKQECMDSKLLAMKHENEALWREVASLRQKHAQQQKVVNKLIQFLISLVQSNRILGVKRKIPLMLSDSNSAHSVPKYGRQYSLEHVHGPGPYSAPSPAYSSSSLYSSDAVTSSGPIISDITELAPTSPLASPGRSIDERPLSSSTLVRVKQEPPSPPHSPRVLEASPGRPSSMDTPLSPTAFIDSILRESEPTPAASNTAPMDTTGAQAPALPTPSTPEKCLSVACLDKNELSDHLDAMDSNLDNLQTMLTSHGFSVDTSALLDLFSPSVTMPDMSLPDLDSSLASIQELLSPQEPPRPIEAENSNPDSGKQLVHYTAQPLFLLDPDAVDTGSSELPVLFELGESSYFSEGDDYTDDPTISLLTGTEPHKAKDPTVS
Briefly: decrease of HSF1-responsive luciferase luminescence – cell-based, NIH3T3, dose retest, confirmation (AID 2382).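 Further: NIH3T3 fibroblasts with HSF1-driven luciferase reporter stressed by proteasome inhibitor MG132; luminescence from HSF1-driven luciferase expression after 8 hours of MG132 stress.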 The format is functional.

Assay [3] relates to Streptococcus sp. 'group A'. Briefly: Streptococcus pyogenes SK(-)GAS viability under kanamycin – luminescence, BacTiterGlo, confirmation, counter-screen for streptokinase expression inhibitor project, dose response (AID 1900). The class given is functional, organism-based. A general note: Counterscreens check selectivity or assay interference.
For assay [4], the target named is T3, Streptokinase A (Streptococcus pyogenes serotype M1, UniProt P10520).
T3 sequence (P10520 whole entry): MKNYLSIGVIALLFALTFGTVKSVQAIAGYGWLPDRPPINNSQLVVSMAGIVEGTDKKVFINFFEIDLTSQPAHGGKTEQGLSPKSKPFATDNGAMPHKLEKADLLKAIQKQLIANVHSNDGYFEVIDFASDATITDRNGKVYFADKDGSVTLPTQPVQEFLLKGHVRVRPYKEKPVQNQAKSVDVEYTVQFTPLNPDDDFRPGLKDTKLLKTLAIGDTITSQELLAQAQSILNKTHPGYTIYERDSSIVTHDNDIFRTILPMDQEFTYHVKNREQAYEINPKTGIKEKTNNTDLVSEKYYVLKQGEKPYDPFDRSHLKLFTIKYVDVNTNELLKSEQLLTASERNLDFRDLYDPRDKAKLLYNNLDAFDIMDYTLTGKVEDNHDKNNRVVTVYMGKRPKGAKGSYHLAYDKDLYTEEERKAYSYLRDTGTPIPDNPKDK
As to the kind of experiment: viability-normalized secreted streptokinase activity reduction – plasminogen activation absorbance, OD405, dose response (AID 1914).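 Further: secreted streptokinase activity via plasminogen activation per viability signal from cell pellet.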 The format is functional, Streptococcus pyogenes M1 GAS.

In assay [5] the test system is Streptococcus. Briefly: GAS UMAA2166 growth inhibition – luminescence, BacTiterGlo, counter-screen for streptokinase expression inhibitor project, dose response (AID 1915).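 Further: potency for reduction of bacterial viability or growth.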 The class given is functional, organism-based.
Assay [6] in a line: NIH3T3 cell viability loss – ATP luminescence, mouse fibroblasts, counter-screen, dose response (AID 2010).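 Further: cells exposed to compound for about 90 hours before reading.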 The class given is functional, cell-based.
A short description of assay [7]: Trypanosoma cruzi growth suppression in host cells – NIH3T3 host cells, beta-gal luminescence, confirmation (AID 2044).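 Further: intracellular parasites grown in NIH/3T3 mouse fibroblasts as host cells; luminescent beta-galactosidase reporter signal from transgenic T. cruzi replicating inside host cells; inhibitors lower the luminescence signal.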 The class given is functional, cell-based.
Assay [8] deals with T4, Calpain-2 catalytic subunit (Sus scrofa, UniProt P43367).
T4 sequence (P43367 whole entry): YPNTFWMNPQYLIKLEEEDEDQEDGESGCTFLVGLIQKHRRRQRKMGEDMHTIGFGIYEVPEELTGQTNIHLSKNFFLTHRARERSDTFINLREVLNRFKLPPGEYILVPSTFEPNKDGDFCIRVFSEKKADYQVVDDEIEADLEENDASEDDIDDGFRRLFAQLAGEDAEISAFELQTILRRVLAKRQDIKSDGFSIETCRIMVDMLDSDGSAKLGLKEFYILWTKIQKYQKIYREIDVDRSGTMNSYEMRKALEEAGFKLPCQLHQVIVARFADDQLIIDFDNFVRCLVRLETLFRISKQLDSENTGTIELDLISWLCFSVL
As to the kind of experiment: m-calpain protease blockers, concentration series – biochemical, fluorogenic peptide substrate, dose response (AID 1420). The format is functional.

A short description of assay [9]: Luminescence Cell-Based Dose Response HTS to Identify Activators of Luciferase Translation or Activity in H4 […] Cells. [Related pubchem assays: 1829 (Project Summary), 1814 (Primary HTS)]. The class given is functional.
A short description of assay [10]: Luminescence Cell-Based Dose Confirmation HTS to Identify Activators of 5'UTR Stem-Loop Driven Alpha-Synuclein mRNA Translation in H4 Neuroglioblastoma Cells. [Related pubchem assays: 1829 (Project Summary), 1814 (Primary HTS)]. The format is functional.
Assay [11] deals with H4. As to the kind of experiment: Luminescence Cell-Based Dose Response HTS to Identify Activators of 5'UTR Stem-Loop Driven Prion Protein mRNA Translation in H4 Neuroglioblastoma Cells. [Related pubchem assays: 1829 (Project Summary), 1814 (Primary HTS)]. The format is functional. To be noted: Homo sapiens.
Assay [12] addresses Paired box protein Pax-8 (Homo sapiens, UniProt Q06710). Briefly: PAX8 transcriptional activity inhibition in RMG-I – RMG-I cells, luciferase, cherry-pick, dose response (AID 687027).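 Further: luciferase reporter driven by Pax8 target thyroperoxidase promoter measured by SteadyGlo luminescence.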 The class given is functional, cell-based.
The nature of assay [13]: HIV-1 AD8 envelope cell-cell fusion blockers – cherry-pick, dose response (AID 652062).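 Further: luciferase signal from cell-cell fusion driven by HIV-1 clade B AD8 Env; potency is for inhibitors of fusion seen as a drop in luminescence.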 The class given is functional, cell-based.
Assay [14] can be described thus: P. falciparum Dd2 growth inhibitors, dose response, SYBR Green, cherry-picked samples (AID 1159567). The format is functional, cell-based.

Active and inactive are the calls of the source. For most assays here, no stated cut-off is given here; in the data, actives have a measured EC50 and inactives only a lower limit.

Paired box protein Pax-8, sequence (Q06710 whole entry, the tested form may be a part): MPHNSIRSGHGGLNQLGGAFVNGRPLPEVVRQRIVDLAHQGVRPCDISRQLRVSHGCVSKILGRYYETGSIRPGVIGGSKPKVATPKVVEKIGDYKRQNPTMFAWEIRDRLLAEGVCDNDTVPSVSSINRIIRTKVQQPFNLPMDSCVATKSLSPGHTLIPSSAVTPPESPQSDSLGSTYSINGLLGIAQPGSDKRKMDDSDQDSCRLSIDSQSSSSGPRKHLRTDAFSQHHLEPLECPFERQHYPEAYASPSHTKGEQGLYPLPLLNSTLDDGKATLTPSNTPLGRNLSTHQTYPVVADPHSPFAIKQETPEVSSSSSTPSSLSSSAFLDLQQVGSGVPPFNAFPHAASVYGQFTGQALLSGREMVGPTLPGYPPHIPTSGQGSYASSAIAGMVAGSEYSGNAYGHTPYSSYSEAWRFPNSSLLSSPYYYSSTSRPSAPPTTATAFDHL

For orientation: IC50 means the point on the concentration scale where inhibition reaches its midpoint. With `Cc1cccc(C#Cc2ccccc2)n1`, in [1], the IC50 was > 100 µM (inactive). The term EC50 denotes the concentration needed to bring the measured effect to its halfway point. For the compound `COc1cccc(/C=C/C(=O)NCc2ccc3c(c2)OCO3)c1`, the EC50 in assay [2] is reported as > 195 µM (not active). The same measure, in the same setting: next, `CCN(CC)C(=O)c1ccc(-c2ccccc2)cc1`: > 195 µM (not active). On the same count and under the same terms, next, `CCc1ccccc1NC(=O)c1ccc(NS(C)(=O)=O)cc1`: > 195 µM (not active). With `COc1cc(C(=O)OCC(=O)c2c(N)n(C)c(=O)n(C)c2=O)ccc1OCCC(C)C`, the EC50 in assay [3] is 12.7 µM (active); in assay [4] it was > 150 µM (not active); in assay [5] it was > 150 µM (not active).

Consider `CN1C(=O)/C(=C\c2ccccc2F)Sc2ccc(C(=O)NC3CCN(Cc4ccccc4)CC3)cc21`, for which the EC50 was 7.12 µM (active) in [3]; > 60 µM (not active) in assay [6]; > 150 µM (not active) in [4]; 41.8 µM (active) in [5]; 0.243 µM (active) in assay [7]. Turning to `Cc1ccccc1N=C(S)N(CCc1c(C)[nH]c2ccc(F)cc12)Cc1cccnc1`, the IC50 in assay [8] is recorded as > 50 µM (not active). In the case of `CC(C)(C)C1CC=C2C(C#N)=C(N)C(C#N)(C#N)C(c3cccs3)C2C1` (stereo not drawn), the EC50 in [3] is 14.9 µM (active); in assay [4], 25.7 µM (active); in assay [5], > 150 µM (not active).

As for `CS(=O)(=O)N(CC(=O)O)c1ccc(C23CC4CC(CC(C4)C2)C3)cc1`, in [2], the concentration for a half-maximal effect (EC50) was > 195 µM (not active). Turning to `Clc1ccc(C#Cc2cccnc2)cc1`, the IC50 in [1] was 12.6 µM (active). Moreover, the EC50 in assay [9] is 24.1 µM (active); in [10] it was 17.4 µM (active); in [11], 1.73 µM (active). For `N#CCc1ccc(NC(=O)Nc2cccc3ccccc23)cc1`, in [2], the EC50 was > 195 µM (not active).

With `CC(C)c1ccc(-n2cccc2/C=C2/C(=N)N3C=CSC3=NC2=O)cc1`, the EC50 is 2.1 µM (active) in assay [3], > 150 µM (not active) in assay [4] and 14.7 µM (active) in [5]. Take `O=C1CC(C(=O)Nc2ccc(Cl)cc2)n2ncnc2N1` (stereo not drawn): in assay [8], the IC50 was < 0.4 µM (not active). As for `CC(CCc1ccccc1)NC(=O)CSc1cccc[n+]1[O-]` (stereo not drawn), the IC50 in assay [8] was 44.7 µM (not active). For `CSc1ccc(CN(C)CC(=O)Nc2c(F)cccc2F)cc1`, in [8], the IC50 is on record as 2.25 µM (not active). As to `CCn1c(S(=O)(=O)O)nc2ccccc21`, the EC50 in [2] is listed as > 195 µM (not active).

As to `Cc1c(C(=O)N(C)c2ccc(Cl)cc2)cnn1-c1ccccc1`, the IC50 in [1] was > 100 µM (inactive). As for `C=CCn1c(N2C(=O)CC(Cc3ccccc3)C2=O)nc2ccccc21` (stereo not drawn), the concentration giving a half-maximal response (EC50) in assay [3] is 9.02 µM (active); in assay [4] it was > 150 µM (not active); in assay [5] it was > 150 µM (not active). As to `CCOC(=O)N1CCc2c(sc3c2c(=O)n(Cc2ccccc2)c(=O)n3CC(=O)NCCOC)C1`, the IC50 in [8] is 7.05 µM (not active). With `N#C/C(=C\c1ccco1)Sc1nc2ccccc2s1`, the IC50 in assay [1] is > 100 µM (inactive). Besides, the EC50 in assay [9] is 11.8 µM (active); in [10], 13.9 µM (active); in assay [11], 25.6 µM (active). Take `Cc1ccnn2c(-c3ccccc3)c3c(=O)n(C)c(=O)n(C)c3c12`: the EC50 in assay [3], in [4] and in [5] was > 150 µM (not active) throughout. As for `CC(=O)c1cn(CC(=O)Nc2ccccc2C)c2ccccc12`, the EC50 in assay [2] is on record as > 195 µM (not active). For the compound `CCCCSc1nnc(-c2ccc(C)cc2)c2ccccc12`, the IC50 in [8] is given as 5.25 µM (not active). As to `Cc1ccc(NC(=O)c2ccc(F)cc2F)cc1`, in assay [1], the IC50 was 79 µM (inactive). Take `Cc1ccc(N(CC(=O)NCC2CCCO2)S(=O)(=O)c2ccc(Cl)cc2)cc1C` (stereo not drawn): the IC50 in [1] was > 100 µM (inactive).

Usually AC50 stands for the concentration giving half of the maximal activity seen. For the compound `Oc1ccc(C[C@H]2CN([C@@H](Cc3ccc(O)cc3)CN3CCC[C@@H]3CN3C(=S)NC[C@@H]3Cc3ccccc3)C(=S)N2CC2CCCCCC2)cc1`, the AC50 in assay [12] was 9.27 µM (active).

For the compound `Cc1ccc(NC(=O)CSc2nc(N)cc(O)n2)cc1S(=O)(=O)N1CCCCCC1`, in assay [1], the IC50 was > 100 µM (inactive). Consider `C[C@H]1CN([C@@H](C)CO)C(=O)c2cccc(NC(=O)Nc3ccc(F)cc3)c2O[C@H]1CN(C)C(=O)Nc1ccc(C(F)(F)F)cc1`, for which the AC50 in assay [12] is 13.1 µM (active). In the case of `O=C(C[C@H]1C[C@@H]2c3cc(NC(=O)C4CCOCC4)ccc3O[C@@H]2[C@H](CO)O1)NCc1ccccc1`, the AC50 in assay [13] is 2.09 µM (active). Regarding `C[C@@H]1CN([C@@H](C)CO)C(=O)c2c(c3ccccc3n2C)-c2ccccc2CO[C@H]1CN(C)C(=O)Nc1ccc2c(c1)OCO2`, in [12], the AC50 was 5.68 µM (active). `OC[C@@H]1CC[C@@H]2O[C@H](CCc3ccc(-c4ccc(F)cc4)cc3)[C@H](n3cc(C4CC4)nn3)C[C@@H]2O1`: the AC50 in assay [14] is 7.67 µM (active). Still for that read-out and setting: next, `N#C[C@@H]1[C@H](c2ccccc2-c2cccc(F)c2)[C@H](CO)N1C(=O)C1CC1`: 3.48 µM (active); `COCC#Cc1ccc(CC[C@H]2O[C@H]3CC[C@@H](CO)O[C@H]3C[C@@H]2n2cc(C3CC3)nn2)cc1`: 5.82 µM (active). Still for that read-out and setting: next, `CCC(=O)N1CCC2(CC1)CN(Cc1ccc3c(c1)OCO3)[C@@H](CO)c1c2c2ccc(OC)cc2n1C`: 4.05 µM (active); `CN1c2ccc(C#Cc3cccnc3)cc2[C@@H]2[C@@H](CCN2C(=O)C2CCC2)[C@@H]1CO`: 4.18 µM (active). Regarding `COc1cc(C(=O)NS(=O)(=O)c2ccccc2C)ccc1Cc1cn(C)c2ccc(NC(=O)OC3CCCC3)cc12` [ZAFIRLUKAST], the EC50 is 0.936 µM (active) in assay [3], > 50 µM (not active) in [4] and > 50 µM (not active) in [5].
